Results: PubChem BioAssay (NCI)
Where “and” joins values, the source holds several entries; their conditions need not be identical. Equal entries are not always repeated.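 In this assay, cells in 96-well plates receive the compound at five concentrations for 48 hours. Endpoints are linearly interpolated between the surrounding concentrations. GI50 is the concentration that inhibits growth by half. TGI denotes the concentration required for complete inhibition of growth.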

Tests used:
Assay in all cases: inhibition of tumour cell growth, NCI panel, 48 h
CAKI-1 renal = system: CAKI-1 renal
SK-OV-3 ovarian = system: SK-OV-3 ovarian
TK-10 renal = system: TK-10 renal
SF-268 CNS = system: SF-268 CNS
UACC-62 melanoma = system: UACC-62 melanoma
MCF7 breast = system: MCF7 breast
SK-MEL-28 melanoma = system: SK-MEL-28 melanoma
EKVX NSCLC = system: EKVX NSCLC
LOX IMVI melanoma = system: LOX IMVI melanoma
OVCAR-8 ovarian = system: OVCAR-8 ovarian

Row | Compound | GI50 (CAKI-1 renal) | TGI (CAKI-1 renal) | GI50 (SK-OV-3 ovarian) | TGI (SK-OV-3 ovarian) | GI50 (TK-10 renal) | TGI (TK-10 renal) | GI50 (SF-268 CNS) | TGI (SF-268 CNS) | GI50 (UACC-62 melanoma) | TGI (UACC-62 melanoma) | GI50 (MCF7 breast) | TGI (MCF7 breast) | GI50 (SK-MEL-28 melanoma) | TGI (SK-MEL-28 melanoma) | GI50 (EKVX NSCLC) | TGI (EKVX NSCLC) | GI50 (LOX IMVI melanoma) | TGI (LOX IMVI melanoma) | GI50 (OVCAR-8 ovarian) | TGI (OVCAR-8 ovarian)
1 | Cc1cc(Cl)ccc1Nc1nc(C(F)(F)F)ccc1C(=O)N/N=C/c1ccc(N(C)C)cc1 | 0.404 µM | 8.52 µM | 2.19 µM | > 100 µM | 1.03 µM | > 100 µM | 1.37 µM | > 100 µM | 2.29 µM | > 100 µM | 1.9 µM | > 100 µM | 3.81 µM | > 100 µM | 0.746 µM | > 100 µM | 0.7 µM | > 100 µM | 2.83 µM | > 100 µM
2 | Cc1ccc2oc(=O)cc(C3c4ccc([nH]4)C(c4cc(=O)oc5ccc(C)cc45)c4ccc([nH]4)C(c4cc(=O)oc5ccc(C)cc45)c4ccc([nH]4)C(c4cc(=O)oc5ccc(C)cc45)c4ccc3[nH]4)c2c1 (stereo unspecified) | 0.0806 µM | 1.79 µM | 0.0247 µM | 0.0687 µM | 0.0519 µM | 0.926 µM | 0.0561 µM | 1.47 µM | 0.0324 µM | 0.8 µM | 0.0394 µM | 1.95 µM | 0.075 µM | 2.98 µM | 0.0632 µM | 4.48 µM | 0.0365 µM | 1.23 µM | 0.0338 µM | 1.52 µM
3 | CCCCCC/C=C\CCCCCCCCCc1c(O)c(OC)cc(O)c1CN(C)C |  | 26.9 µM |  | 28.1 µM |  | 28.8 µM |  |  |  | 23.3 µM |  | 7 µM |  | 28.2 µM |  | 23.6 µM |  | > 100 µM |  | 23.8 µM
4 | CCN1CCN(c2cc(C)nc(NCc3cc(Nc4ccnc5cc(Cl)ccc45)ccc3F)n2)CC1 | 2.82 µM | 17.1 µM | 27.6 µM | 69.3 µM | 18.8 µM | 45.4 µM | 4.09 µM | 40 µM |  |  | 0.302 µM | 16.9 µM | 1.84 µM | 3.71 µM | 5.45 µM | > 100 µM | 1.74 µM | 3.6 µM | 4.11 µM | > 100 µM
5 | COC(=O)C1=C2CO[C@@H]3C[C@H]4C(C)(C)CCC[C@]4(C)C(=CC1)[C@]23C | 19.5 µM | 52.1 µM |  |  | 42.8 µM | > 100 µM | 98.3 µM | > 100 µM | 41.9 µM | > 100 µM | 44 µM | > 100 µM | 45.3 µM | > 100 µM | 45.5 µM | > 100 µM | 36.4 µM | > 100 µM | 40.2 µM | > 100 µM
6 | O=C(O)CCc1nc(-c2ccccc2)c(-c2ccccc2)o1 |  | > 100 µM |  | > 100 µM |  | > 100 µM |  |  |  | > 100 µM |  | > 100 µM |  | > 100 µM |  | > 100 µM |  | > 100 µM |  | > 100 µM
7 | COc1cc(C(=O)/C=C/c2c(-c3cccs3)nc3ccccn23)cc(OC)c1OC | 2.31 µM | 8.14 µM | 3.01 µM | 8.35 µM | 3.78 µM | 25.4 µM | 2.37 µM | 8.47 µM | 1.61 µM | 3.57 µM | 1.12 µM | 15.4 µM |  |  | 3.12 µM | > 100 µM | 1.87 µM | 4.9 µM | 1.68 µM | 6.31 µM
8 | COc1cc2c(cc1-c1c(C)noc1C)ncc1[nH]c(=O)n([C@H](C)c3ccccn3)c12 | 0.0939 µM | > 100 µM | 0.6 µM | > 50.1 µM | 0.257 µM | 22 µM | 11.7 µM | > 100 µM | 0.145 µM | > 87.2 µM | 0.195 µM | > 100 µM | 0.695 µM | > 90.7 µM |  |  | 0.352 µM | 20.3 µM | 3.54 µM | > 100 µM
9 | Cc1sc2c(c1C)C(c1ccc(Cl)cc1)=N[C@@H](CC(=O)Nc1ccc(O)cc1)c1nnc(C)n1-2 | 0.0946 µM | 16.2 µM | 0.15 µM | 15 µM | 0.0941 µM | 19 µM | 11.8 µM | 50.8 µM | 0.162 µM | 18.1 µM | 0.0553 µM | 18.2 µM | 5.31 µM | 26.4 µM |  |  | 0.109 µM | 6.29 µM | 2.26 µM | 40.6 µM
10 | O=C1C(Nc2cccc(O)c2)=C(Sc2ccc(Cl)cc2)C(=O)N1Cc1ccccc1 | 18.6 µM | 38.9 µM | 12.6 µM | 30.6 µM | 16.7 µM | 31.8 µM | 8.73 µM | 44.6 µM | 10.4 µM | 27.2 µM | 5.86 µM | > 100 µM | 11 µM | 40.9 µM |  |  | 8.7 µM | 29.1 µM | 6.03 µM | 34.8 µM
11 | CO[C@@]12[C@H](COC(N)=O)C3=C(C(=O)C(C)=C(N)C3=O)N1C[C@@H]1N[C@@H]12 |  | 6.18 µM and 25 µM and 3.07 µM | 2.41 µM | 9.83 µM and 18 µM and 7.06 µM | 2.63 µM |  |  |  | 0.952 µM | 2.64 µM and 7.74 µM and 2.19 µM | 0.215 µM and 0.0824 µM | 8.6 µM and 15.1 µM and 47 µM | 2.18 µM | 7.12 µM and 14.9 µM | 7.98 µM | 17.1 µM and 20.8 µM and 31.7 µM | 0.615 µM | 4.26 µM and 3.47 µM | 1.52 µM and 0.925 µM | 
